# Test results from patent publication US12441695B2, “Substituted thiadiazinone dioxide and preparation method therefor, herbicidal composition, and application therefor” (Qingdao Kingagroot Chemical Compound Co., Ltd., priority 2019, dated 2025).
# Legend:
# [1] = system: monocotyledonous and dicotyledonous weeds; assay: Experiment on weeding effect in post-emergence stage (weeds); format: in vivo; settings: 600 g/ha active ingredient plus water 450 kg/ha, 3 weeks after application, fresh weight control rate; for Amaranthus retroflexus activity level (growth control rate): fomesafen-resistant Amaranthus retroflexus
# Summary of the method: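 Greenhouse pot-grown weeds and crops sprayed post-emergence 2–3 weeks after sowing with compound in acetone/Tween 80/water. Fresh-weight growth control scored after 3 weeks on a 0–5 scale (5: >85%, 0: <5%).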
# [2] = system: major crops (wheat, corn, rice, soybean, cotton, oilseed rape, millet, sorghum); assay: Experiment on weeding effect in post-emergence stage (crops); format: in vivo; settings: 600 g/ha active ingredient plus water 450 kg/ha, 3 weeks after application; for corn plant damage level (growth control rate): crop corn; for rice plant damage level (growth control rate): crop rice; for soybean plant damage level (growth control rate): crop soybean
# Summary of the method: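 Weed and crop seeds were sown in soil-filled pots, covered with 0.5–2 cm soil and grown in a greenhouse. Plants were sprayed 2–3 weeks after sowing using a spray tower, with compound dissolved in acetone plus Tween 80 and diluted in water. Effect was expressed as fresh-weight growth control rate.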
# [3] = system: gramineous weeds; settings: in vivo; cited from earlier work
Structure (SMILES),Amaranthus retroflexus activity level (growth control rate) [1],Digitaria sanguinalis activity level (growth control rate) [1],Echinochloa crus-galli activity level (growth control rate) [1],Setaria viridis activity level (growth control rate) [1],corn plant damage level (growth control rate) [2],rice plant damage level (growth control rate) [2],soybean plant damage level (growth control rate) [2],effect on gramineous weeds [3]
CCC(=O)N1c2c(F)cc(F)cc2C(=O)N(C(C)C)S1(=O)=O [Compound 214],5 (Level 5: growth control rate is above 85%),5 (Level 5: growth control rate is above 85%),4 (Level 4: growth control rate is greater than or equal to 60% and less than 85%),5 (Level 5: growth control rate is above 85%),0 (Level 0: growth control rate is less than 5%),–,–,–
CC(C)C(=O)N1c2c(F)cc(F)cc2C(=O)N(C(C)C)S1(=O)=O [Compound 215],5 (Level 5: growth control rate is above 85%),5 (Level 5: growth control rate is above 85%),5 (Level 5: growth control rate is above 85%),5 (Level 5: growth control rate is above 85%),1 (Level 1: growth control rate is greater than or equal to 500 and less than 200%),–,–,–
C=CC(=O)N1c2c(F)cc(F)cc2C(=O)N(C(C)C)S1(=O)=O [Compound 216],4 (Level 4: growth control rate is greater than or equal to 60% and less than 85%),3 (Level 3: growth control rate is greater than or equal to 40% and less than 60%),3 (Level 3: growth control rate is greater than or equal to 40% and less than 60%),4 (Level 4: growth control rate is greater than or equal to 60% and less than 85%),0 (Level 0: growth control rate is less than 5%),0 (Level 0: growth control rate is less than 5%),–,–
CC(C)N1C(=O)c2cc(F)cc(F)c2N(C(=O)C2CC2)S1(=O)=O [Compound 217],5 (Level 5: growth control rate is above 85%),5 (Level 5: growth control rate is above 85%),5 (Level 5: growth control rate is above 85%),5 (Level 5: growth control rate is above 85%),1 (Level 1: growth control rate is greater than or equal to 500 and less than 200%),–,–,–
CCCOC(=O)N1c2c(F)cc(F)cc2C(=O)N(C(C)C)S1(=O)=O [Compound 218],5 (Level 5: growth control rate is above 85%),–,4 (Level 4: growth control rate is greater than or equal to 60% and less than 85%),5 (Level 5: growth control rate is above 85%),0 (Level 0: growth control rate is less than 5%),1 (Level 1: growth control rate is greater than or equal to 500 and less than 200%),–,–
CC(C)OC(=O)N1c2c(F)cc(F)cc2C(=O)N(C(C)C)S1(=O)=O [Compound 219],5 (Level 5: growth control rate is above 85%),3 (Level 3: growth control rate is greater than or equal to 40% and less than 60%),5 (Level 5: growth control rate is above 85%),5 (Level 5: growth control rate is above 85%),1 (Level 1: growth control rate is greater than or equal to 500 and less than 200%),–,–,–
CCCCOC(=O)N1c2c(F)cc(F)cc2C(=O)N(C(C)C)S1(=O)=O [Compound 220],4 (Level 4: growth control rate is greater than or equal to 60% and less than 85%),3 (Level 3: growth control rate is greater than or equal to 40% and less than 60%),5 (Level 5: growth control rate is above 85%),5 (Level 5: growth control rate is above 85%),1 (Level 1: growth control rate is greater than or equal to 500 and less than 200%),–,–,–
CCCCCCCCSC(=O)N1c2c(F)cc(F)cc2C(=O)N(C(C)C)S1(=O)=O [Compound 222],5 (Level 5: growth control rate is above 85%),–,–,–,0 (Level 0: growth control rate is less than 5%),0 (Level 0: growth control rate is less than 5%),–,–
CC(C)N1C(=O)c2cc(F)cc(F)c2N(C(=O)N(C)C)S1(=O)=O [Compound 223],5 (Level 5: growth control rate is above 85%),5 (Level 5: growth control rate is above 85%),3 (Level 3: growth control rate is greater than or equal to 40% and less than 60%),5 (Level 5: growth control rate is above 85%),0 (Level 0: growth control rate is less than 5%),0 (Level 0: growth control rate is less than 5%),–,–
CCCS(=O)(=O)N1c2c(F)cc(F)cc2C(=O)N(C(C)C)S1(=O)=O [Compound 229],3 (Level 3: growth control rate is greater than or equal to 40% and less than 60%),–,–,–,1 (Level 1: growth control rate is greater than or equal to 500 and less than 200%),–,–,–
"CC(C)N1C(=O)c2cccc(F)c2NS1(=O)=O [D, reference compound]",2 (Level 2: growth control rate is greater than or equal to 20% and less than 40%),1 (Level 1: growth control rate is greater than or equal to 500 and less than 200%),1 (Level 1: growth control rate is greater than or equal to 500 and less than 200%),2 (Level 2: growth control rate is greater than or equal to 20% and less than 40%),0 (Level 0: growth control rate is less than 5%),0 (Level 0: growth control rate is less than 5%),1 (Level 1: growth control rate is greater than or equal to 500 and less than 200%),–
"O=C1c2c(cc(F)c(F)c2F)NS(=O)(=O)N1CCl [E, reference compound]",2 (Level 2: growth control rate is greater than or equal to 20% and less than 40%),1 (Level 1: growth control rate is greater than or equal to 500 and less than 200%),1 (Level 1: growth control rate is greater than or equal to 500 and less than 200%),2 (Level 2: growth control rate is greater than or equal to 20% and less than 40%),1 (Level 1: growth control rate is greater than or equal to 500 and less than 200%),1 (Level 1: growth control rate is greater than or equal to 500 and less than 200%),1 (Level 1: growth control rate is greater than or equal to 500 and less than 200%),–
"CC(C)N1C(=O)c2cccnc2NS1(=O)=O [F, reference compound]",2 (Level 2: growth control rate is greater than or equal to 20% and less than 40%),2 (Level 2: growth control rate is greater than or equal to 20% and less than 40%),2 (Level 2: growth control rate is greater than or equal to 20% and less than 40%),2 (Level 2: growth control rate is greater than or equal to 20% and less than 40%),1 (Level 1: growth control rate is greater than or equal to 500 and less than 200%),1 (Level 1: growth control rate is greater than or equal to 500 and less than 200%),1 (Level 1: growth control rate is greater than or equal to 500 and less than 200%),–
"CC(C)N1C(=O)c2ccccc2NS1(=O)=O [G, reference compound]",1 (Level 1: growth control rate is greater than or equal to 500 and less than 200%),0 (Level 0: growth control rate is less than 5%),0 (Level 0: growth control rate is less than 5%),1 (Level 1: growth control rate is greater than or equal to 500 and less than 200%),0 (Level 0: growth control rate is less than 5%),1 (Level 1: growth control rate is greater than or equal to 500 and less than 200%),1 (Level 1: growth control rate is greater than or equal to 500 and less than 200%),–
CC(C)N1C(=O)c2ccccc2NS1(=O)=O [bentazone],–,–,–,–,–,–,–,ineffective
